From publication PMC7932537, “Quantitative profiling of protease specificity” (PLoS Computational Biology, 2021)

How the values were obtained:
[1] = test system: MMP-9; assay: Substrate phage display with NGS: relative probability (RP) of P3-P1' tetramer clusters; assay type: biochemical, human; settings: MMP9; RP of the P3-P1' tetramer contained in the hexamer substrate (substrate phage display, NGS);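 note: ratio of tetramer probability after protease selection to that in naive phage library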
[2] = target: T1, MMP-2 (Homo sapiens, UniProt P08253); assay: kcat/KM of synthetic peptides derived from substrate phage selections; assay type: biochemical; settings: synthetic hexamer peptides; recombinant MMP-2 catalytic domain, APMA-activated; determined in triplicate as described in ref 27
T1 construct: The recombinant catalytic domains of MMP-2 and -9 were expressed in HEK293 cells; made in house; host or cells: HEK293 cells, stably transfected; purified from serum-free medium on Gelatin Sepharose 4B
T1 sequence (P08253 110-446 limits assumed): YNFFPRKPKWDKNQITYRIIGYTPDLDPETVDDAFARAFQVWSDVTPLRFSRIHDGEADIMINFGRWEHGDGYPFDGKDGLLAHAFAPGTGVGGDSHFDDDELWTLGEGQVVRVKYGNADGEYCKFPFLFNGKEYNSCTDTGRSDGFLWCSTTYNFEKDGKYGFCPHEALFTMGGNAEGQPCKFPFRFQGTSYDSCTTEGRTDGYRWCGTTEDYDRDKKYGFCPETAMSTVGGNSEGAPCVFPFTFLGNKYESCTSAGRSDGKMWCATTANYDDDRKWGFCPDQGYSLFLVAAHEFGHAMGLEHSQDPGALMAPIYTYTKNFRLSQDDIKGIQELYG
Description: (§1) K(obs) obtained for each of the 1369 substrates has a range of 0 and 12,792 (M^-1 s^-1) due to the experimental conditions used in the study. So, all substrates with the true K(obs) above this value will nevertheless have a K(obs) equal to the preset maximum. With this limitation in mind, we corroborated the results using synthetic peptides, thereby extending the correlation to the entire range of kcat/KM values for each MMP. We performed a correlation analysis using a set of 100 peptides with sequences derived from substrate phage selections and their kcat/KM values were experimentally determined as described in [27] (S8 Table).
(§2) The recombinant catalytic domains of MMP-2 and -9 were expressed in HEK293 cells stably transfected with respective constructs and purified from serum-free culture medium using Gelatin Sepharose 4B (GE Healthcare) as described in [29, 35]. Following activation with APMA (Sigma-Aldrich), the amount of active enzyme was determined by active site titration using GM6001 (Sigma-Aldrich). The kcat/KM values of 100 peptides derived from phage substrates […] were determined in triplicate as described in [27].
(§3) Supplementary file pcbi.1008101.s010.xlsx: S8 Table Table of 100 peptide set derived from substrate phage selections of MMP-2 and 9, for which kcat/KM values were experimentally determined. […]

[3] = target: MMP-9 (Homo sapiens, UniProt P14780); assay: as above; assay type: biochemical; parameters: The recombinant catalytic domains of MMP-2 and -9 were expressed in HEK293 cells; made in house; host or cells: HEK293 cells, stably transfected; purified from serum-free medium on Gelatin Sepharose 4B; settings: MMP9; 100 set of synthetic hexamer peptide substrates; mean, SD and SEM in columns of their own
MMP-9 (Homo sapiens, UniProt P14780), sequence (P14780 94-444 limits assumed): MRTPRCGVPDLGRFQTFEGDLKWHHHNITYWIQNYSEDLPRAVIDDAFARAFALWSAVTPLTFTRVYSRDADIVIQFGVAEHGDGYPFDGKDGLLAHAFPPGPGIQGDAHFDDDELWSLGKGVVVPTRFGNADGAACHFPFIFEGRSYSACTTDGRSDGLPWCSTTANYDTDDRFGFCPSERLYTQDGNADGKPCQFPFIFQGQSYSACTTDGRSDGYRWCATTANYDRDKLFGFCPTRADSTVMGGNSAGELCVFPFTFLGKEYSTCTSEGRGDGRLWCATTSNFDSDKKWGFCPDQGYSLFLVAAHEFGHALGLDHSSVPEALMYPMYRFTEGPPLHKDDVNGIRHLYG
Description: as §1, §2, §3

[4] = test system: MMP-2; assay: Substrate phage display with NGS: relative probability (RP) of P3-P1' tetramer clusters; assay type: biochemical, human; settings: RP of the P3-P1' tetramer cluster contained in the hexamer; 200 nM MMP-2, 2 h, 37°C, two rounds of selection;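 note: ratio of tetramer probability after protease selection to that in naive phage library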

DRKPKA
relative probability (RP) [1]: 1.5839
kcat/Km [2]: 0 M⁻¹ s⁻¹
kcat/Km [3]: 0 M⁻¹ s⁻¹
relative probability (RP) [4]: 0.3523
